Measurements: ChEMBL document CHEMBL1122832, “4-substituted 5-[m-(trifluoromethyl)phenoxy]primaquine analogues as potential antimalarial agents” (1985)
“And” between values parts separate entries of the source, which are not always exact repeats. Identical values can stand only once.

Columns and labels:
Assay type in all cases: functional
Mus musculus [1] = assay: Mean survival time of mice(Plasmodium berghei) at a dose of 80 mg/kg, total no. of mice = 5
Mus musculus [2] = assay: Antimalarial activity against Plasmodium berghei in mice (Mus musculus) at a dose of 320 mg/kg and activity expressed as toxic deaths on days 2-5
Mus musculus [3] = assay: Antimalarial activity against Plasmodium berghei in mice (Mus musculus) at a dose of 640 mg/kg and activity expressed as toxic deaths on days 2-5
Mus musculus [4] = assay: Antimalarial activity against Plasmodium berghei in mice (Mus musculus) at a dose of 160 mg/kg and activity expressed as toxic deaths on days 2-5
Mus musculus [5] = assay: Antimalarial activity against Plasmodium berghei in mice (Mus musculus) at a dose of 160 mg/kg and activity expressed as number cures surviving 60 days
Mus musculus [6] = assay: Antimalarial activity against Plasmodium berghei in mice (Mus musculus) at a dose of 20 mg/kg and activity expressed as number cures surviving 60 days
Mus musculus [7] = assay: Antimalarial activity against Plasmodium berghei in mice (Mus musculus) at a dose of 320 mg/kg and activity expressed as number cures surviving 60 days
Mus musculus [8] = assay: Antimalarial activity against Plasmodium berghei in mice (Mus musculus) at a dose of 40 mg/kg and activity expressed as number cures surviving 60 days
Mus musculus [9] = assay: Antimalarial activity against Plasmodium berghei in mice (Mus musculus) at a dose of 640 mg/kg and activity expressed as number cures surviving 60 days
Mus musculus [10] = assay: Antimalarial activity against Plasmodium berghei in mice (Mus musculus) at a dose of 80 mg/kg and activity expressed as number cures surviving 60 days
Mus musculus [11] = assay: Antimalarial activity against Plasmodium berghei yoelii in mice (Mus musculus) at a dose of 10 mg/kg administered subcutaneously and activity expressed as cures; 6/25; settings: route subcutaneous
Mus musculus [12] = assay: Antimalarial activity against Plasmodium berghei yoelii in mice (Mus musculus) at a dose of 160 mg/kg administered by subcutaneous and activity expressed as cures; 2/25
Mus musculus [13] = assay: Antimalarial activity against Plasmodium berghei yoelii in mice (Mus musculus) at a dose of 40 mg/kg administered subcutaneously and activity expressed as cures; 5/25; settings: route subcutaneous
Mus musculus [14] = assay: Mean survival time of mice(Plasmodium berghei) at a dose of 10 mg/kg, total no. of mice = 5
Mus musculus [15] = assay: Mean survival time of mice(Plasmodium berghei) at a dose of 5 mg/kg, total no. of mice = 5
Plasmodium cynomolgi [16] = assay: Antimalarial activity against Plasmodium cynomolgi infected Rhesus monkeys (Macaca mulatta) at 0.316 mg/kg dose; Cured 2 of 2
Plasmodium cynomolgi [17] = assay: Antimalarial activity against Plasmodium cynomolgi infected Rhesus monkeys (Macaca mulatta) at 1.0 mg/kg; cured 2 of 2
Plasmodium cynomolgi [18] = assay: Antimalarial activity against Plasmodium cynomolgi infected Rhesus monkeys (Macaca mulatta) at 0.1 mg/kg; relapses in 2 of 2
Plasmodium cynomolgi [19] = assay: Antimalarial activity against Plasmodium cynomolgi infected Rhesus monkeys (Macaca mulatta) at 0.1 mg/kg; cured 0 of 2
Mus musculus [20] = assay: Antimalarial activity against Plasmodium berghei yoelii in mice (Mus musculus) at a dose of 10 mg/kg administered by peroral and activity expressed as cures; 3/10; settings: route oral
Mus musculus [21] = assay: Antimalarial activity against Plasmodium berghei yoelii in mice (Mus musculus) at a dose of 10 mg/kg administered by subcutaneous and activity expressed as cures; 10/15
Mus musculus [22] = assay: Antimalarial activity against Plasmodium berghei yoelii in mice (Mus musculus) at a dose of 2.5 mg/kg administered perorally and activity expressed as cures; 3/10; settings: route oral
Mus musculus [23] = assay: Antimalarial activity against Plasmodium berghei yoelii in mice (Mus musculus) at a dose of 2.5 mg/kg administered by subcutaneous and activity expressed as cures; 0/10
Mus musculus [24] = assay: Antimalarial activity against Plasmodium berghei yoelii in mice (Mus musculus) at a dose of 40 mg/kg administered perorally and activity expressed as cures; settings: route oral
Mus musculus [25] = assay: Antimalarial activity against Plasmodium berghei yoelii in mice (Mus musculus) at a dose of 40 mg/kg administered by subcutaneous and activity expressed as cures; 14/15
Mus musculus [26] = assay: Mean survival time of mice(Plasmodium berghei) at a dose of 160 mg/kg, total no. of mice = 5
Mus musculus [27] = assay: Mean survival time of mice(Plasmodium berghei) at a dose of 20 mg/kg, total no. of mice = 5
Mus musculus [28] = assay: Mean survival time of mice(Plasmodium berghei) at a dose of 320 mg/kg, total no. of mice = 5
Mus musculus [29] = assay: Mean survival time of mice(Plasmodium berghei) at a dose of 40 mg/kg, total no. of mice = 5
Mus musculus [30] = assay: Antimalarial activity against Plasmodium berghei in mice (Mus musculus) at a dose of 64 mg/kg and activity expressed as toxic deaths on days 2-5
Mus musculus [31] = assay: Antimalarial activity against Plasmodium berghei yoelii in mice (Mus musculus) at a dose of 160 mg/kg administered by subcutaneous and activity expressed as toxic
Mus musculus [32] = assay: Antimalarial activity against Plasmodium berghei yoelii in mice (Mus musculus) at a dose of 2.5 mg/kg and activity expressed as toxic
Plasmodium cynomolgi [33] = assay: Antimalarial activity against Plasmodium cynomolgi infected Rhesus monkeys (Macaca mulatta) at 1.0 mg/kg; cured 0 of 1
Mus musculus [34] = assay: Antimalarial activity against Plasmodium berghei yoelii in mice (Mus musculus) at a dose of 160 mg/kg administered subcutaneously and activity expressed as cures; settings: route subcutaneous
Mus musculus [35] = assay: Mean survival time of mice(Plasmodium berghei) at a dose of 640 mg/kg, total no. of mice = 5
Plasmodium cynomolgi [36] = assay: Antimalarial activity against Plasmodium cynomolgi infected Rhesus monkeys (Macaca mulatta) at 1.0 mg/kg;cured 0 of 2
Plasmodium cynomolgi [37] = assay: Antimalarial activity against Plasmodium cynomolgi infected Rhesus monkeys (Macaca mulatta) at 1.0 mg/kg; relapses
Mus musculus [38] = assay: Antimalarial activity against Plasmodium berghei yoelii in mice (Mus musculus) at a dose of 10 mg/kg administered perorally and activity expressed as cures; 0/15; settings: route oral
Mus musculus [39] = assay: Antimalarial activity against Plasmodium berghei yoelii in mice (Mus musculus) at a dose of 10 mg/kg administered subcutaneously and activity expressed as cures; 9/15; settings: route subcutaneous
Mus musculus [40] = assay: Antimalarial activity against Plasmodium berghei yoelii in mice (Mus musculus) at a dose of 160 mg/kg administered subcutaneously and activity expressed as cures; 10/10; settings: route subcutaneous
Mus musculus [41] = assay: Antimalarial activity against Plasmodium berghei yoelii in mice (Mus musculus) at a dose of 2.5 mg/kg administered by peroral and activity expressed as cures; 0/5; settings: route oral
Mus musculus [42] = assay: Antimalarial activity against Plasmodium berghei yoelii in mice (Mus musculus) at a dose of 2.5 mg/kg administered subcutaneously and activity expressed as cures; 0/5; settings: route subcutaneous
Mus musculus [43] = assay: Antimalarial activity against Plasmodium berghei yoelii in mice (Mus musculus) at a dose of 40 mg/kg administered by peroral and activity expressed as cures; 4/5; settings: route oral
Mus musculus [44] = assay: Antimalarial activity against Plasmodium berghei yoelii in mice (Mus musculus) at a dose of 40 mg/kg administered by subcutaneous and activity expressed as cures; 12/15
Plasmodium cynomolgi [45] = assay: Antimalarial activity against Plasmodium cynomolgi infected Rhesus monkeys (Macaca mulatta) at 0.1 mg/kg; cured 0 of 1
Mus musculus [46] = assay: Antimalarial activity against Plasmodium berghei yoelii in mice (Mus musculus) at a dose of 10 mg/kg administered by peroral and activity expressed as cures; 5/5; settings: route oral
Mus musculus [47] = assay: Antimalarial activity against Plasmodium berghei yoelii in mice (Mus musculus) at a dose of 10 mg/kg administered by subcutaneous and activity expressed as cures; 8/10
Mus musculus [48] = assay: Antimalarial activity against Plasmodium berghei yoelii in mice (Mus musculus) at a dose of 160 mg/kg administered subcutaneously and activity expressed as cures; […]; settings: route subcutaneous
Mus musculus [49] = assay: Antimalarial activity against Plasmodium berghei yoelii in mice (Mus musculus) at a dose of 2.5 mg/kg administered by subcutaneous and activity expressed as cures; 1/5
Plasmodium cynomolgi [50] = assay: Antimalarial activity against Plasmodium cynomolgi infected Rhesus monkeys (Macaca mulatta) at 0.316 mg/kg; cured 1 of 2
Plasmodium cynomolgi [51] = assay: Antimalarial activity as relapses in Plasmodium cynomolgi infected Rhesus monkeys (Macaca mulatta) at 0.1 mg/kg
Plasmodium cynomolgi [52] = assay: Antimalarial activity against Plasmodium cynomolgi infected Rhesus monkeys (Macaca mulatta) at 0.316 mg/kg; relapses
Mus musculus [53] = assay: Antimalarial activity against Plasmodium berghei yoelii in mice (Mus musculus) at a dose of 40 mg/kg administered subcutaneously and activity expressed as cures; 9/10; settings: route subcutaneous
Plasmodium cynomolgi [54] = assay: Antimalarial activity against Plasmodium cynomolgi in Rhesus monkeys (Macaca mulatta) at 0.316 mg/kg; cured 0 of 2
Plasmodium cynomolgi [55] = assay: Antimalarial activity against Plasmodium cynomolgi infected Rhesus monkeys (Macaca mulatta) at 1.0 mg/kg; cured 1 of 2

COc1cc(NC(C)CCCN)c2ncccc2c1.O=P(O)(O)O.O=P(O)(O)O (stereo unspecified) [PRIMAQUINE PHOSPHATE]
Delta MST (Mus musculus [1]): 9
Toxic (Mus musculus [2]): 5
Toxic (Mus musculus [3]): 5
Toxic (Mus musculus [4]): 2

CCc1ccnc2c(NC(C)CCCN)cc(OC)c(Oc3cccc(C(F)(F)F)c3)c12 (stereo unspecified)
Cures (Mus musculus [5]): 5
Cures (Mus musculus [6]): 3
Cures (Mus musculus [7]): 5
Cures (Mus musculus [8]): 4
Cures (Mus musculus [9]): 1
Cures (Mus musculus [10]): 4
Cures (Mus musculus [11]): 6
Cures (Mus musculus [12]): 2
Cures (Mus musculus [13]): 5
Delta MST (Mus musculus [14]): 5.3
Delta MST (Mus musculus [15]): 1.7
Cures (Plasmodium cynomolgi [16]): 2
Cures (Plasmodium cynomolgi [17]): 2
Relapses (Plasmodium cynomolgi [18]): 20
Cures (Plasmodium cynomolgi [19]): 0
Toxic (Mus musculus [4]): 3

COc1cc(NC(C)CCCN)c2nccc(CO)c2c1Oc1cccc(C(F)(F)F)c1 (stereo unspecified)
Cures (Mus musculus [10]): 1
Cures (Mus musculus [20]): 3
Cures (Mus musculus [21]): 10
Cures (Mus musculus [22]): 3
Cures (Mus musculus [23]): 0
Cures (Mus musculus [24]): 10
Cures (Mus musculus [25]): 14
Delta MST (Mus musculus [14]): 1.4
Delta MST (Mus musculus [26]): 14.8
Delta MST (Mus musculus [27]): 3.6
Delta MST (Mus musculus [28]): 13.1
Delta MST (Mus musculus [29]): 3.8
Delta MST (Mus musculus [15]): 0.6
Toxic (Mus musculus [30]): 4
Toxic (Mus musculus [31]): 2
Toxic (Mus musculus [32]): 7
Cures (Plasmodium cynomolgi [33]): 0
Cures (Mus musculus [34]): 3

C=Cc1ccnc2c(NC(C)CCCN)cc(OC)c(Oc3cccc(C(F)(F)F)c3)c12 (stereo unspecified)
Delta MST (Mus musculus [26]): 3.7
Delta MST (Mus musculus [29]): -0.1
Delta MST (Mus musculus [35]): 8.1
Cures (Plasmodium cynomolgi [36]): 0
Relapses (Plasmodium cynomolgi [37]): 12 and 19

COc1cc(NC(C)CCCN)c2nccc(C(OC)OC)c2c1Oc1cccc(C(F)(F)F)c1 (stereo unspecified)
Cures (Mus musculus [5]): 3
Cures (Mus musculus [7]): 2
Cures (Mus musculus [10]): 1
Cures (Mus musculus [38]): 0
Cures (Mus musculus [39]): 9
Cures (Mus musculus [40]): 10
Cures (Mus musculus [41]): 0
Cures (Mus musculus [42]): 0
Cures (Mus musculus [43]): 4
Cures (Mus musculus [44]): 12
Delta MST (Mus musculus [14]): 2.5
Delta MST (Mus musculus [27]): 5.5
Delta MST (Mus musculus [29]): 8.5
Delta MST (Mus musculus [15]): 1.9
Toxic (Mus musculus [3]): 5
Cures (Plasmodium cynomolgi [36]): 0
Relapses (Plasmodium cynomolgi [37]): 24 and 44

COc1cc(NC(C)CCCN)c2nccc(C)c2c1Oc1cccc(C(F)(F)F)c1 (stereo unspecified)
Cures (Mus musculus [5]): 5
Cures (Mus musculus [6]): 5
Cures (Mus musculus [8]): 5
Cures (Mus musculus [9]): 1
Toxic (Mus musculus [3]): 4
Cures (Plasmodium cynomolgi [16]): 2
Cures (Plasmodium cynomolgi [17]): 2
Cures (Plasmodium cynomolgi [45]): 0

COCc1ccnc2c(NC(C)CCCN)cc(OC)c(Oc3cccc(C(F)(F)F)c3)c12 (stereo unspecified)
Cures (Mus musculus [5]): 4
Cures (Mus musculus [6]): 1
Cures (Mus musculus [7]): 4
Cures (Mus musculus [8]): 5
Cures (Mus musculus [9]): 2
Cures (Mus musculus [10]): 5
Cures (Mus musculus [46]): 5
Cures (Mus musculus [47]): 8
Cures (Mus musculus [48]): 5
Cures (Mus musculus [41]): 0
Cures (Mus musculus [49]): 1
Cures (Mus musculus [43]): 4
Delta MST (Mus musculus [14]): 6.6
Delta MST (Mus musculus [15]): 2.8
Cures (Plasmodium cynomolgi [50]): 1
Cures (Plasmodium cynomolgi [17]): 2
Relapses (Plasmodium cynomolgi [51]): 8
Relapses (Plasmodium cynomolgi [52]): 28
Cures (Plasmodium cynomolgi [19]): 0
Cures (Mus musculus [53]): 9

COc1cc(NC(C)CCCN)c2ncccc2c1 (stereo unspecified) [PRIMAQUINE]
Cures (Plasmodium cynomolgi [54]): 0
Cures (Plasmodium cynomolgi [55]): 1
Cures (Plasmodium cynomolgi [19]): 0
